“And” between values parts separate entries of the source, which are not always exact repeats. Equal values may be shown once. Where a name gives a salt, the structure may show the parent alone.
Key:
[1] = test system: unanaesthetised hypertensive dogs; experiment: Haemodynamic effects in unanaesthetised hypertensive dogs; assay type: in vivo; parameters: Δdp/dt / Δdp/dt average: unit not given beside the values; ΔBPs / ΔBPd / ΔLVEDP / ΔBPs average / ΔBPd average / ΔLVEDP average / ΔHR average: unit not given here; conditions: for ΔBPd average / ΔBPs average / ΔHR average / ΔLVEDP average / Δdp/dt average: n = 3, 3 mg/kg p.o.; for ΔBPd / ΔBPs / ΔHR / ΔLVEDP / Δdp/dt: single dog
Procedure: Haemodynamic effects of the compounds according to the invention in unanaesthetised hypertensive dogs (n=3).
Table VI below and FIG. 1 show more particularly the change in the effect of compound (46) on the various haemodynamic parameters as a function of time, the compound being administered p.o. in a dosage of 3 mg/kg.

thoracic aorta = experiment: Vasorelaxant effect on isolated vessels (rat thoracic aorta rings without endothelium, precontracted with noradrenalin); parameters: species or system Wistar rats
Method in brief: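 Endothelium-denuded thoracic aorta rings from Wistar rats, held in Krebs-Ringer buffer (pH 7.4, 37 °C, 95% O2/5% CO2) under isometric tension and precontracted with 10^-7 M noradrenalin, received cumulative compound (10^-8 to 10^-4 M). Maximum relaxation given as percent; IC50 calculated when relaxation exceeded 50%.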

[2] = 3 mg/kg p.o., 10 min, monohydrochloride, 3 mg/kg
[3] = 3 mg/kg p.o., 20 min, monohydrochloride, 3 mg/kg
[4] = 3 mg/kg p.o., 30 min, monohydrochloride, 3 mg/kg
[5] = 3 mg/kg p.o., 60 min, monohydrochloride, 3 mg/kg
[6] = 3 mg/kg p.o., 90 min, monohydrochloride, 3 mg/kg
[7] = 3 mg/kg p.o., 120 min, monohydrochloride, 3 mg/kg
[8] = 3 mg/kg p.o., 180 min, monohydrochloride, 3 mg/kg
[9] = 3 mg/kg p.o., 240 min, monohydrochloride, 3 mg/kg
[10] = 3 mg/kg p.o., 300 min, monohydrochloride, 3 mg/kg
[11] = 3 mg/kg p.o., 360 min, monohydrochloride, 3 mg/kg

In the case of `O=C(CNC(=O)[C@@H]1CSCN1)N[C@H]1CO[C@H]2[C@@H]1OC[C@@H]2O[N+](=O)[O-]` [Compound 46, 5-[[2-[[(4-L-Thiazolidinyl)carbonyl]amino]-1oxoethyl]amino]-5-deoxy-2-O-nitro-1,4:3,6-dianhydro-L-iditol monohydrochloride], the “lowering of left ventricular end-diastolic pressure (LVEDP)” value ([1]; 3 mg/kg p.o.) is reported as “significant, pronounced and prolonged”, the “lowering of systolic blood pressure (BPs)” value ([1]; 3 mg/kg p.o.) is reported as “significant, pronounced and prolonged” and the ΔBPd average ([1]; 10 min) is reported as -3. The ΔBPs average ([1]; 10 min) was -5, the ΔHR average ([1]; 10 min) was 3 and the ΔLVEDP average ([1]; 10 min) was -1. It also gave a Δdp/dt average ([1]; 10 min) of -167, a ΔBPd average ([1]; 20 min) of 0 and a ΔBPs average ([1]; 20 min) of -2. The ΔHR average ([1]; 20 min) was 17, the ΔLVEDP average ([1]; 20 min) was -2 and the Δdp/dt average ([1]; 20 min) was 33. For the same compound, the ΔBPd average ([1]; 30 min) was 2, the ΔBPs average ([1]; 30 min) was -2 and the ΔHR average ([1]; 30 min) was 7. It also gave a ΔLVEDP average ([1]; 30 min) of -1, a Δdp/dt average ([1]; 30 min) of 100 and a ΔBPd average ([1]; 60 min) of 0. The ΔBPs average ([1]; 60 min) was -22, the ΔHR average ([1]; 60 min) was -7 and the ΔLVEDP average ([1]; 60 min) was -4. It also gave a Δdp/dt average ([1]; 60 min) of 33, a ΔBPd average ([1]; 90 min) of 3 and a ΔBPs average ([1]; 90 min) of -28. It also gave a ΔHR average ([1]; 90 min) of 23, a ΔLVEDP average ([1]; 90 min) of -5 and a Δdp/dt average ([1]; 90 min) of -33. For the same compound, the ΔBPd average ([1]; 120 min) was 5, the ΔBPs average ([1]; 120 min) was -28 and the ΔHR average ([1]; 120 min) was 33. For the same compound, the ΔLVEDP average ([1]; 120 min) was -6, the Δdp/dt average ([1]; 120 min) was 0 and the ΔBPd average ([1]; 180 min) was 8. For the same compound, the ΔBPs average ([1]; 180 min) was -25, the ΔHR average ([1]; 180 min) was 32 and the ΔLVEDP average ([1]; 180 min) was -5. It also gave a Δdp/dt average ([1]; 180 min) of 0, a ΔBPd average ([1]; 240 min) of 8 and a ΔBPs average ([1]; 240 min) of -30. For the same compound, the ΔHR average ([1]; 240 min) was 27, the ΔLVEDP average ([1]; 240 min) was -5 and the Δdp/dt average ([1]; 240 min) was -133. For the same compound, the ΔBPd average ([1]; 300 min) was 8, the ΔBPs average ([1]; 300 min) was -27 and the ΔHR average ([1]; 300 min) was 27. It also gave a ΔLVEDP average ([1]; 300 min) of -2, a Δdp/dt average ([1]; 300 min) of 33 and a ΔBPd average ([1]; 360 min) of 8. For the same compound, the ΔBPs average ([1]; 360 min) was -23, the ΔHR average ([1]; 360 min) was 13 and the ΔLVEDP average ([1]; 360 min) was -4. The Δdp/dt average ([1]; 360 min) was -133, the ΔBPd [1, 2] was -5 and 0 and the ΔBPs [1, 2] was -5 and 0 and -10. For the same compound, the ΔHR [1, 2] was 0 and 10, the ΔLVEDP [1, 2] was -1 and 0 and -2 and the Δdp/dt [1, 2] was -100 and 0 and -400. For the same compound, the ΔBPd ([1]; 3 mg/kg p.o., 20 min) was 0, the ΔBPs [1, 3] was 0 and -5 and the ΔHR [1, 3] was 35 and 0 and 15. The ΔLVEDP [1, 3] was -3 and 0 and -2, the Δdp/dt [1, 3] was 300 and 0 and -200 and the ΔBPd [1, 4] was 5 and 0. The ΔBPs [1, 4] was 0 and -5, the ΔHR [1, 4] was 0 and 10 and the ΔLVEDP [1, 4] was 0 and -3. The Δdp/dt [1, 4] was 0 and 500 and -200, the ΔBPd [1, 5] was 5 and 0 and -5 and the ΔBPs [1, 5] was -25 and -15. The ΔHR [1, 5] was 10 and -10 and -20, the ΔLVEDP [1, 5] was -7 and -3 and the Δdp/dt [1, 5] was 0 and 500 and -400. The ΔBPd [1, 6] was 5 and 10 and -5, the ΔBPs [1, 6] was -30 and -25 and the ΔHR [1, 6] was 35 and 45 and -10. For the same compound, the ΔLVEDP [1, 6] was -7 and -6 and -3, the Δdp/dt [1, 6] was -200 and 500 and -400 and the ΔBPd [1, 7] was 5 and 10 and 0. The ΔBPs [1, 7] was -30 and -25, the ΔHR [1, 7] was 55 and 63 and -20 and the ΔLVEDP [1, 7] was -9 and -7 and -2. The Δdp/dt [1, 7] was -400 and 800, the ΔBPd [1, 8] was 10 and 15 and 0 and the ΔBPs [1, 8] was -15 and -25 and -35. For the same compound, the ΔHR [1, 8] was 35 and 40 and 20, the ΔLVEDP [1, 8] was -7 and -4 and the Δdp/dt [1, 8] was -300 and 500 and -200. The ΔBPd [1, 9] was 10 and 15 and 0, the ΔBPs [1, 9] was -15 and -35 and -40 and the ΔHR [1, 9] was 40 and 20. For the same compound, the ΔLVEDP [1, 9] was -7 and -5 and -4, the Δdp/dt [1, 9] was -500 and 500 and -400 and the ΔBPd [1, 10] was 10 and 15 and 0. The ΔBPs [1, 10] was -15 and -45 and -40, the ΔHR [1, 10] was 45 and 40 and -5 and the ΔLVEDP [1, 10] was -4 and 0 and -3. For the same compound, the Δdp/dt [1, 10] was -300 and 800 and -400, the ΔBPd [1, 11] was 10 and 15 and 0 and the ΔBPs [1, 11] was -10 and -25 and -35. For the same compound, the ΔHR [1, 11] was 15 and 10, the ΔLVEDP [1, 11] was -5 and -3 and -4 and the Δdp/dt [1, 11] was -500 and 500 and -400. For the same compound, the Emax (thoracic aorta; Rattus norvegicus, maximum inhibition of noradrenalin effect, 10^-8 to 10^-4 M substance, read-out: Maximum Relaxation) was 50% and the IC50 (thoracic aorta; rat aorta, 10^-7 M noradrenalin contraction) was 100 µM.
